Converted amounts (≈) assume the structure as drawn.
What was measured:
[1] = tested on: Cheumatopsyche; test: Insecticidal activity against first-instar larvae of Cheumatopsyche brevilineata after 48 hr; format: functional, organism-based
[2] = Octanol-water partition coefficient, log KOW of the compound
[3] = tested on: Daphnia magna; test: Insecticidal activity against Daphnia magna after 48 hr; format: functional, organism-based
[4] = tested on: Daphnia pulex; test: Insecticidal activity against Daphnia pulex after 48 hr; format: functional, organism-based

Structure (SMILES)	EC50 [1]	logP [2]	EC50 [3]	LC50 ([3]; Daphnia magna, 48 h)	EC50 [4]	log KOW [2]
CNC(=O)Oc1cc(C)cc(C)c1	58.9 ng/mL (≈ 0.329 µM)	2.3	30 ng/mL (≈ 0.167 µM)			
CCN(Cc1ccc(Cl)nc1)/C(=C/[N+](=O)[O-])NC	45 ng/mL (≈ 0.166 µM)		> 100000 ng/mL			
C/C(=N\C#N)N(C)Cc1ccc(Cl)nc1	3.35 ng/mL (≈ 0.015 µM)	0.8	50000 ng/mL (≈ 225 µM)			
CCOC(=O)CCN(SN(C)C(=O)Oc1cccc2c1OC(C)(C)C2)C(C)C [BENFURACARB]	6.66 ng/mL (≈ 0.0162 µM)	4.22	9.9 ng/mL (≈ 0.0241 µM)			
CN(C)C(CSS(=O)(=O)c1ccccc1)CSS(=O)(=O)c1ccccc1 [BENSULTAP]	148 ng/mL (≈ 0.343 µM)	2.28		200 ng/mL (≈ 0.463 µM)		
CC(C)N1C(=O)N(c2ccccc2)CS/C1=N\C(C)(C)C [BUPROFEZIN]	181 ng/mL (≈ 0.593 µM)	4.3	> 420 ng/mL			
CNC(=O)Oc1cccc2ccccc12 [CARBARIL]	21.4 ng/mL (≈ 0.106 µM)	1.85	5.6 ng/mL (≈ 0.0278 µM)			
CCCCN(CCCC)SN(C)C(=O)Oc1cccc2c1OC(C)(C)C2 [CARBOSULFAN]	1.49 ng/mL (≈ 0.00392 µM)	5.4			1.03 ng/mL (≈ 0.00271 µM)	
CN(C)C(CSC(N)=O)CSC(N)=O.Cl [CARTAP HYDROCHLORIDE]	3.7 ng/mL		65 ng/mL			
CN/C(=N\[N+](=O)[O-])NCc1cnc(Cl)s1 [CLOTHIANIDINE]	4.44 ng/mL (≈ 0.0178 µM)		> 119000 ng/mL			
COP(=O)(OC)OC=C(Cl)Cl [DICHLORVOS]	1.17 ng/mL (≈ 0.00529 µM)	1.9	0.2 ng/mL (≈ 0.000905 µM)			
CCOP(=S)(OCC)Oc1cc(C)nc(C(C)C)n1 [DIMPYLATE]	1.77 ng/mL (≈ 0.00582 µM)		0.87 ng/mL (≈ 0.00286 µM)			
CN/C(=N/CC1CCOC1)N[N+](=O)[O-] (stereo unspecified) [DINOTEFURAN]	10.4 ng/mL (≈ 0.0514 µM)		> 968300 ng/mL			-0.644
CCOc1ccc(C(C)(C)COCc2cccc(Oc3ccccc3)c2)cc1 [ETOFENPROX]	0.116 ng/mL (≈ 0.000308 µM)		0.57 ng/mL (≈ 0.00151 µM)			
COP(=S)(OC)Oc1ccc([N+](=O)[O-])c(C)c1 [FENITROTHION]	7.78 ng/mL (≈ 0.0281 µM)	3.43	11 ng/mL (≈ 0.0397 µM)			
CCC(C)c1ccccc1OC(=O)NC (stereo unspecified) [FENOBUCARB]	9.48 ng/mL (≈ 0.0457 µM)	2.79			10.3 ng/mL (≈ 0.0497 µM)	
COP(=S)(OC)Oc1ccc(SC)c(C)c1 [FENTHION]	2.14 ng/mL (≈ 0.00769 µM)		5.2 ng/mL (≈ 0.0187 µM)			
N#Cc1nn(-c2c(Cl)cc(C(F)(F)F)cc2Cl)c(N)c1[S+]([O-])C(F)(F)F (stereo unspecified) [FIPRONIL]	0.153 ng/mL (≈ 0.00035 µM)		190 ng/mL (≈ 0.435 µM)			
O=[N+]([O-])/N=C1\NCCN1Cc1ccc(Cl)nc1 [IMIDACLOPRID]	4.22 ng/mL (≈ 0.0165 µM)		85200 ng/mL (≈ 333 µM)			
CCOC(=O)CC(SP(=S)(OC)OC)C(=O)OCC (stereo unspecified) [MALATHION]	1.81 ng/mL (≈ 0.00548 µM)	2.75	1 ng/mL (≈ 0.00303 µM)			
CNC(=O)ON=C(C)SC [METHOMYL]	68.1 ng/mL (≈ 0.42 µM)	0.093	8.8 ng/mL (≈ 0.0542 µM)			
CC1(C)C(C=C(Cl)Cl)C1C(=O)OCc1cccc(Oc2ccccc2)c1 (stereo unspecified) [PERMETHRIN]	0.205 ng/mL (≈ 0.000524 µM)		0.6 ng/mL (≈ 0.00153 µM)			6.1
CCOC(=O)C(SP(=S)(OC)OC)c1ccccc1 (stereo unspecified) [PHENTHOATE]	0.88 ng/mL (≈ 0.00275 µM)		0.34 ng/mL (≈ 0.00106 µM)			
CC1=NNC(=O)N(/N=C/c2cccnc2)C1 [PYMETROZINE]	112000 ng/mL (≈ 516 µM)		87000 ng/mL (≈ 400 µM)			
CCOc1ccc([Si](C)(C)CCCc2ccc(F)c(Oc3ccccc3)c2)cc1 [SILAFLUOFEN]	0.6 ng/mL (≈ 0.00147 µM)		1.2 ng/mL (≈ 0.00294 µM)			
CCc1ccc(C(=O)NN(C(=O)c2cc(C)cc(C)c2)C(C)(C)C)cc1 [TEBUFENOZIDE]	> 830 ng/mL		3800 ng/mL (≈ 10.8 µM)			
N#C/N=C1\SCCN1Cc1ccc(Cl)nc1 [THIACLOPRID]	5.27 ng/mL (≈ 0.0209 µM)		22520 ng/mL (≈ 89.1 µM)			
CN(C)C1CSSSC1.O=C(O)C(=O)O [THIOCYCLAM HYDROGEN OXALATE]	5.76 ng/mL	-0.07			2010 ng/mL	
CS/C(C)=N\OC(=O)N(C)SN(C)C(=O)O/N=C(\C)SC [THIODICARB]	145 ng/mL (≈ 0.409 µM)	1.62	27 ng/mL (≈ 0.0762 µM)			
COP(=O)(OC)C(O)C(Cl)(Cl)Cl (stereo unspecified) [TRICHLORFON]	2.02 ng/mL (≈ 0.00785 µM)		0.36 ng/mL (≈ 0.0014 µM)			

Source: ChEMBL document CHEMBL3046240, “A useful new insecticide bioassay using first-instar larvae of a net-spinning caddisfly, Cheumatopsyche brevilineata (Trichoptera: Hydropsychidae)” (J Pestic Sci, 2009)
